From ChEMBL document CHEMBL2010711, “Synthesis and comparative evaluation of 4-oxa- and 4-aza-podophyllotoxins as antiproliferative microtubule destabilizing agents” (Bioorg Med Chem Lett, 2012)
Calls of active or inactive are those of the source.

Assays:
[1] = tested on: CCRF-CEM; assay: Cytotoxicity against human CCRF-CEM cells after 48 hrs by trypan blue dye exclusion assay; assay type: functional
[2] = tested on: HL-60(TB); assay: Cytotoxicity against human HL-60(TB) cells after 48 hrs by trypan blue dye exclusion assay; assay type: functional; conditions: HL-60, 48 h
[3] = tested on: MOLT-4; assay: Cytotoxicity against human MOLT4 cells after 48 hrs by trypan blue dye exclusion assay; assay type: functional; conditions: MOLT-4, 48 h
[4] = tested on: RPMI-8226; assay: Cytotoxicity against human RPMI8226 cells after 48 hrs by trypan blue dye exclusion assay; assay type: functional; conditions: RPMI-8226, 48 h
[5] = tested on: SR; assay: Cytotoxicity against human SR cells after 48 hrs by trypan blue dye exclusion assay; assay type: functional
[6] = tested on: A549; assay: Cytotoxicity against human A549 cells after 48 hrs by trypan blue dye exclusion assay; assay type: functional; conditions: A549, 48 h
[7] = tested on: EKVX; assay: Cytotoxicity against human EKVX cells after 48 hrs by trypan blue dye exclusion assay; assay type: functional
[8] = tested on: HOP-92; assay: Cytotoxicity against human HOP92 cells after 48 hrs by trypan blue dye exclusion assay; assay type: functional; conditions: HOP-92, 48 h
[9] = tested on: NCI-H226; assay: Cytotoxicity against human NCI-H226 cells after 48 hrs by trypan blue dye exclusion assay; assay type: functional; conditions: NCI-H226, 48 h
[10] = tested on: NCI-H23; assay: Cytotoxicity against human NCI-H23 cells after 48 hrs by trypan blue dye exclusion assay; assay type: functional; conditions: NCI-H23, 48 h
[11] = tested on: NCI-H460; assay: Cytotoxicity against human NCI-H460 cells after 48 hrs by trypan blue dye exclusion assay; assay type: functional; conditions: NCI-H460, 48 h
[12] = tested on: NCI-H522; assay: Cytotoxicity against human NCI-H522 cells after 48 hrs by trypan blue dye exclusion assay; assay type: functional; conditions: NCI-H522, 48 h
[13] = tested on: COLO 205; assay: Cytotoxicity against human COLO205 cells after 48 hrs by trypan blue dye exclusion assay; assay type: functional; conditions: COLO 205, 48 h
[14] = tested on: HCC 2998; assay: Cytotoxicity against human HCC2998 cells after 48 hrs by trypan blue dye exclusion assay; assay type: functional; conditions: HCC 2998, 48 h
[15] = tested on: HCT-116; assay: Cytotoxicity against human HCT116 cells after 48 hrs by trypan blue dye exclusion assay; assay type: functional; conditions: HCT-116, 48 h
[16] = tested on: HCT-15; assay: Cytotoxicity against human HCT15 cells after 48 hrs by trypan blue dye exclusion assay; assay type: functional; conditions: HCT-15, 48 h
[17] = tested on: HT-29; assay: Cytotoxicity against human HT-29 cells after 48 hrs by trypan blue dye exclusion assay; assay type: functional; conditions: HT-29, 48 h
[18] = tested on: KM12; assay: Cytotoxicity against human KM12 cells after 48 hrs by trypan blue dye exclusion assay; assay type: functional; conditions: KM12, 48 h
[19] = tested on: SW-620; assay: Cytotoxicity against human SW620 cells after 48 hrs by trypan blue dye exclusion assay; assay type: functional; conditions: SW-620, 48 h
[20] = tested on: SF-268; assay: Cytotoxicity against human SF268 cells after 48 hrs by trypan blue dye exclusion assay; assay type: functional; conditions: SF-268, 48 h
[21] = tested on: SF-295; assay: Cytotoxicity against human SF295 cells after 48 hrs by trypan blue dye exclusion assay; assay type: functional; conditions: SF-295, 48 h
[22] = tested on: SF-539; assay: Cytotoxicity against human SF539 cells after 48 hrs by trypan blue dye exclusion assay; assay type: functional; conditions: SF-539, 48 h
[23] = tested on: SNB-19; assay: Cytotoxicity against human SNB19 cells after 48 hrs by trypan blue dye exclusion assay; assay type: functional; conditions: SNB-19, 48 h
[24] = tested on: SNB-75; assay: Cytotoxicity against human SNB75 cells after 48 hrs by trypan blue dye exclusion assay; assay type: functional; conditions: SNB-75, 48 h
[25] = tested on: U-251; assay: Cytotoxicity against human U251 cells after 48 hrs by trypan blue dye exclusion assay; assay type: functional; conditions: U-251, 48 h
[26] = tested on: LOX IMVI; assay: Cytotoxicity against human LOXIMVI cells after 48 hrs by trypan blue dye exclusion assay; assay type: functional
[27] = tested on: Malme-3M; assay: Cytotoxicity against human MALME-3M cells after 48 hrs by trypan blue dye exclusion assay; assay type: functional
[28] = tested on: M14; assay: Cytotoxicity against human M14 cells after 48 hrs by trypan blue dye exclusion assay; assay type: functional; conditions: M14, 48 h
[29] = tested on: MDA-MB-435; assay: Cytotoxicity against human MDA-MB-435 cells after 48 hrs by trypan blue dye exclusion assay; assay type: functional; conditions: MDA-MB-435, 48 h
[30] = tested on: SK-MEL-2; assay: Cytotoxicity against human SK-MEL-2 cells after 48 hrs by trypan blue dye exclusion assay; assay type: functional; conditions: SK-MEL-2, 48 h
[31] = tested on: SK-MEL-28; assay: Cytotoxicity against human SK-MEL-28 cells after 48 hrs by trypan blue dye exclusion assay; assay type: functional; conditions: SK-MEL-28, 48 h
[32] = tested on: UACC-62; assay: Cytotoxicity against human UACC62 cells after 48 hrs by trypan blue dye exclusion assay; assay type: functional; conditions: UACC-62, 48 h
[33] = tested on: IGROV-1; assay: Cytotoxicity against human IGROV1 cells after 48 hrs by trypan blue dye exclusion assay; assay type: functional; conditions: IGROV-1, 48 h
[34] = tested on: OVCAR-3; assay: Cytotoxicity against human OVCAR3 cells after 48 hrs by trypan blue dye exclusion assay; assay type: functional; conditions: OVCAR-3, 48 h
[35] = tested on: OVCAR-4; assay: Cytotoxicity against human OVCAR4 cells after 48 hrs by trypan blue dye exclusion assay; assay type: functional; conditions: OVCAR-4, 48 h
[36] = tested on: OVCAR-5; assay: Cytotoxicity against human OVCAR5 cells after 48 hrs by trypan blue dye exclusion assay; assay type: functional; conditions: OVCAR-5, 48 h
[37] = tested on: OVCAR-8; assay: Cytotoxicity against human OVCAR8 cells after 48 hrs by trypan blue dye exclusion assay; assay type: functional; conditions: OVCAR-8, 48 h
[38] = tested on: NCI/ADR-RES; assay: Cytotoxicity against human NCI/ADR-RES cells after 48 hrs by trypan blue dye exclusion assay; assay type: functional
[39] = tested on: SK-OV-3; assay: Cytotoxicity against human SKOV3 cells after 48 hrs by trypan blue dye exclusion assay; assay type: functional; conditions: SK-OV-3, 48 h
[40] = tested on: 786-0; assay: Cytotoxicity against human 786-0 cells after 48 hrs by trypan blue dye exclusion assay; assay type: functional; conditions: 786-0, 48 h
[41] = tested on: A498; assay: Cytotoxicity against human A498 cells after 48 hrs by trypan blue dye exclusion assay; assay type: functional; conditions: A498, 48 h
[42] = tested on: ACHN; assay: Cytotoxicity against human ACHN cells after 48 hrs by trypan blue dye exclusion assay; assay type: functional
[43] = tested on: RXF 393; assay: Cytotoxicity against human RXF393 cells after 48 hrs by trypan blue dye exclusion assay; assay type: functional; conditions: RXF 393, 48 h
[44] = tested on: SN12C; assay: Cytotoxicity against human SN12C cells after 48 hrs by trypan blue dye exclusion assay; assay type: functional
[45] = tested on: TK-10; assay: Cytotoxicity against human TK10 cells after 48 hrs by trypan blue dye exclusion assay; assay type: functional; conditions: TK-10, 48 h
[46] = tested on: UO-31; assay: Cytotoxicity against human UO31 cells after 48 hrs by trypan blue dye exclusion assay; assay type: functional; conditions: UO-31, 48 h
[47] = tested on: PC-3; assay: Cytotoxicity against human PC3 cells after 48 hrs by trypan blue dye exclusion assay; assay type: functional; conditions: PC-3, 48 h
[48] = tested on: DU-145; assay: Cytotoxicity against human DU145 cells after 48 hrs by trypan blue dye exclusion assay; assay type: functional; conditions: DU-145, 48 h
[49] = tested on: MCF7; assay: Cytotoxicity against human MCF7 cells after 48 hrs by trypan blue dye exclusion assay; assay type: functional; conditions: MCF7, 48 h
[50] = tested on: MDA-MB-231; assay: Cytotoxicity against human MDA-MB-231 cells after 48 hrs by trypan blue dye exclusion assay; assay type: functional; conditions: MDA-MB-231, 48 h
[51] = Cytotoxicity against human Hs 578T cells after 48 hrs by trypan blue dye exclusion assay; assay type: functional
[52] = tested on: BT-549; assay: Cytotoxicity against human BT549 cells after 48 hrs by trypan blue dye exclusion assay; assay type: functional; conditions: BT-549, 48 h
[53] = tested on: T47D; assay: Cytotoxicity against human T47D cells after 48 hrs by trypan blue dye exclusion assay; assay type: functional
[54] = tested on: MDA-MB-468; assay: Cytotoxicity against human MDA-MB-468 cells after 48 hrs by trypan blue dye exclusion assay; assay type: functional; conditions: MDA-MB-468, 48 h
[55] = tested on: Paracentrotus lividus; assay: Antimitotic activity against Paracentrotus lividus embryo assessed as concentration required to cause 100% cleavage alteration after 2.5 to 6 hrs; assay type: functional
[56] = tested on: Paracentrotus lividus; assay: Antimitotic activity against Paracentrotus lividus embryo assessed as concentration required to cause 100% cleavage arrest after 2.5 to 6 hrs; assay type: functional
[57] = tested on: Paracentrotus lividus; assay: Microtubule destabilizing activity in Paracentrotus lividus embryo assessed as concentration required to cause 100% embryo spinning after 15 mins to 20 hrs; assay type: functional
[58] = tested on: Paracentrotus lividus; assay: Antimitotic activity against Paracentrotus lividus embryo assessed as cleavage alteration at 2 fold less effective threshold concentration after 2.5 to 6 hrs; assay type: functional, organism-based
[59] = tested on: Paracentrotus lividus; assay: Antimitotic activity against Paracentrotus lividus embryo assessed as cleavage arrest at 2 fold less effective threshold concentration after 2.5 to 6 hrs; assay type: functional, organism-based
[60] = tested on: Paracentrotus lividus; assay: Microtubule destabilizing activity in Paracentrotus lividus embryo assessed as embryo spinning at 2 fold less effective threshold concentration after 15 mins to 20 hrs; assay type: functional, organism-based

COc1ccc2c(c1)OC1=C(C(=O)OC1)C2c1cc(OC)c(OC)c(OC)c1 (stereo not given)
GI50 [1]: 0.315 µM
GI50 [2]: 0.249 µM
GI50 [3]: 0.515 µM
GI50 [4]: 0.816 µM
GI50 [5]: 0.242 µM
GI50 [6]: 0.707 µM
GI50 [7]: 1.42 µM
GI50 [8]: 0.496 µM
GI50 [9]: 47.5 µM
GI50 [10]: 0.441 µM
GI50 [11]: 1.27 µM
GI50 [12]: 0.378 µM
GI50 [13]: 0.309 µM
GI50 [14]: 1.35 µM
GI50 [15]: 0.496 µM
GI50 [16]: 0.508 µM
GI50 [17]: 0.323 µM
GI50 [18]: 0.464 µM
GI50 [19]: 0.352 µM
GI50 [20]: 0.731 µM
GI50 [21]: 0.288 µM
GI50 [22]: 0.376 µM
GI50 [23]: 0.553 µM
GI50 [24]: 0.172 µM
GI50 [25]: 0.731 µM
GI50 [26]: 0.505 µM
GI50 [27]: 0.468 µM
GI50 [28]: 0.505 µM
GI50 [29]: 0.12 µM
GI50 [30]: 0.439 µM
GI50 [31]: 0.667 µM
GI50 [32]: 0.568 µM
GI50 [33]: 1.13 µM
GI50 [34]: 0.332 µM
GI50 [35]: 2.65 µM
GI50 [36]: 4.68 µM
GI50 [37]: 0.788 µM
GI50 [38]: 0.334 µM
GI50 [39]: 0.368 µM
GI50 [40]: 0.562 µM
GI50 [41]: 0.295 µM
GI50 [42]: 1.63 µM
GI50 [43]: 0.231 µM
GI50 [44]: 0.993 µM
GI50 [45]: > 100 µM
GI50 [46]: 0.936 µM
GI50 [47]: 0.482 µM
GI50 [48]: 0.648 µM
GI50 [49]: 0.33 µM
GI50 [50]: 1.74 µM
GI50 [51]: 0.377 µM
GI50 [52]: 0.947 µM
GI50 [53]: 0.489 µM
GI50 [54]: 0.232 µM
EC [55]: 5 nM
EC [56]: 50 nM
EC [57]: 200 nM
Activity [58]: inactive
Activity [59]: inactive
Activity [60]: inactive
